Experimental data published in a melting point compilation (Tetko et al.; mined from patent text by program, amines drawn as free bases though some values may be those of a salt).

Compound | melting point [°C]
COC(=O)c1cc(C(=O)NN2CCCCC2)c2cc(Cc3ccc(F)cc3)cnc2c1O | 233 to 234
CCOC(=O)c1cc(Cl)c(-n2ncc(C)n2)c(Cl)c1 | 136 to 138
COc1ccc(F)cc1C(C)(C)CC(=O)C(=O)Nc1ccc2c(=O)onc(C)c2c1 | 171 to 173
O=C(Nc1c(Br)cc(Br)cc1C(=O)NCC1CCCCC1)N[C@@H](Cc1ccc(NC(=O)c2c(Cl)cccc2Cl)cc1)C(=O)O | 193
CCOC(=O)Cn1c2c(n(Cc3ccccc3)c(=O)c1=O)CCC1=C2C=C(N)CC1 | 231
CC(Oc1ncn(-c2cccc(Br)c2)n1)C(=O)NC1CC1 (configuration not stated) | 134 to 135
OCC(O)(CO)c1ccc(F)cc1F | 58 to 59
Cc1cc(O)c(Oc2ccccc2C#N)cc1N1CCOCC1 | 162 to 165
O=C(O)CCCNC1=NS(=O)(=O)c2ccccc21 | 200 to 202
Cc1ccc(CC2CCN(C(=O)NC(=O)c3ccc(OCc4ccccc4)cc3)CC2)cc1 | 204 to 208
CC(=O)Nc1nc(-c2ccc(CCC(=O)O)cc2)c(Cc2ccc(S(C)(=O)=O)cc2)s1 | 208 to 210
CCOC(=O)C(C#N)=Cc1c(Cl)n(Cc2ccccc2)c2ccccc12 | 130 to 131
CC(C)(Cc1ccccc1)Nc1c(NCc2cc3cc(C#N)ccc3o2)c(=O)c1=O | 233 to 235
Cc1cc(NNC(=O)Nc2ccc(N(CCCl)CCCl)cc2)c2ccccc2n1 | 235 to 236
O=S(=O)(c1ccccc1)c1ncc(C(F)(F)F)cc1Cl | 86 to 87
CC1OC(Cn2cncn2)(c2ccc(Cl)cc2Cl)CN1S(=O)(=O)c1ccc(C(F)(F)F)cc1 (configuration not stated) | 188 to 190
O=C(O)c1c(F)cccc1NC1CCN(Cc2ccccc2)CC1 | 233 to 236
Cc1ccc(N2CCCN(c3ccnc4sc(C(N)=O)c(N)c34)CC2)nc1 | 205 to 208
CN1CCc2cc(OC[C@H]3CO[C@](Cn4ccnc4)(c4ccc(Cl)cc4Cl)O3)ccc2C12CCSCC2 (racemic) | 138 to 139
N#CC(C#N)=CNc1ccc(C(N)=O)cn1 | 215 to 218
CC(CCc1cccc(F)c1)NCc1c(CO)ccc(O)c1CO (configuration not stated) | 114 to 117
CC(C)(CO)Oc1ccc(COc2ccc(Cl)cc2)cc1 | 67 to 70
CC1=CCCN(C)C1COC(=O)c1c[nH]c2ccccc12 (configuration not stated) | 172
C[Si](C)(C)CCCOc1cc(Cl)c([N+](=O)[O-])cc1Cl | 45 to 48
N#Cc1cnn2c1N(C(=O)CCl)CCC2c1cccc(C(F)(F)F)c1 (configuration not stated) | 157 to 159

Compound | melting point [°C]
CCNC(=O)c1sc(C)cc1[Si](C)(C)C | 112 to 115
CC1(C)CCC(C)(C)c2c(C=O)cc(-c3ccccc3)cc21 | 113
CCOc1cc2c(Nc3cc(OC)c(Cl)cc3Cl)c(C#N)cnc2cc1OCCCN1CCN(C)CC1 | 137 to 138
COc1ccc(/C(C#N)=C/c2ccc(OC)c(OC3CCCC3)c2)cc1OC | 101 to 103
CS(=O)(=O)c1ccc(-c2nc3n(c2-c2ccncc2)CCC3)cc1 | 222 to 224
CCCCNC(=O)S(=O)(=O)Nc1sc(CC(C)C)cc1-c1ccc(Cn2c(-c3ccccc3)nc(OC)c2C=O)cc1 | 131 to 133
CNC1CCN(c2nc3c(cc2F)c(=O)c(C(=O)O)cn3C2CC2)C1 (configuration not stated) | 233 to 235
CC(C)(C)OC(=O)NCc1ccc(C(=O)Nc2ccc(Nc3cc(-c4cccc5c4oc4ccccc45)ncn3)cc2)c(F)c1 | 255
Cc1nc(N)nc(N)c1N1CCN(c2ccc(C(F)(F)F)cc2)CC1 | 255 to 258
CC(C)(C)c1cc(C(=O)CBr)cc2c1OCC2(C)C | 54 to 56
CN(C)C1CCN(C2CCN(c3ncc4ncnc(Nc5ccc(F)c(Cl)c5)c4n3)CC2)CC1 | 160 to 165
OC1CC(c2ccc(Oc3ccc(-c4ccc(Cl)cc4)cc3)cc2)Cc2ccccc21 (configuration not stated) | 156
CC(=O)Nc1cc2c(cc1[N+](=O)[O-])[C@@H](N1CCCC1=O)[C@H](O)C(C)(C)O2 (relative stereo) | 266 to 268
C[C@@H](n1ccnn1)[C@](O)(Cn1ccnc1)c1ccc(F)cc1F | 150 to 151
CS(=O)(=O)c1ccc(-n2cncc2-c2ccc(F)cc2F)cc1 | 119
CCOC(=O)C(=O)Nc1cccc2ccccc12 | 105 to 107
CN(N)C(=O)c1ccc(O)c(O)c1 | 202 to 205
CCOc1ccccc1OC(c1ccccc1)C(O)CO (configuration not stated) | 68 to 70
Cc1ccc(S(=O)(=O)N2CCCC2c2ccco2)cc1 (racemic) | 58
N#Cc1ccc(C(=O)n2ccnc2)cc1 | 152 to 154
COc1ccccc1N1CCN(Cc2ccc(CC(=O)O)cc2)CC1 | 87 to 90
COc1ccccc1Cc1ccc(=O)[nH]n1 | 142 to 143
COc1ccc(C2=C(c3ccc(S(N)(=O)=O)cc3)CCC2)cc1Cl | 179 to 180
Cc1ncc(CN2CCCNC2=C[N+](=O)[O-])s1 | 204 to 207
c1ccc(C(c2ccccc2)N2CCN(CCCn3c(C4CCCCC4)nc4ccccc43)CC2)cc1 | 115

Compound | melting point [°C]
COc1ccc(C#CC(=Nc2ccc(OC)cc2)N2CCN(Cc3ccccc3)CC2)cc1 | 161
Oc1ccc(CC(=S)Nc2ncc(-c3ccc(O)cc3)nc2Cc2ccccc2)cc1 | 101 to 103
CCOC(=O)c1cc(=O)c2cc(O)ccc2s1 | 217 to 218
C=CCSc1ccc(OCc2ccccc2)nn1 | 56 to 58
CCOC(=O)c1ccccc1N(CC(=O)N(C)c1ccccc1)C(=O)CN1C(=O)c2ccccc2C1=O | 202
CN1C2=C(C(=O)OC2)C(c2ccncc2)c2cc3c(cc21)OCO3 (configuration not stated) | 255
COc1ccc(-c2nc(C(N)(C(F)(F)F)C(F)(F)F)[nH]c2-c2ccc(OC)cc2)cc1 | 127 to 128
CC(=O)CC(=O)N(C)c1cccc(-c2ccc3nnc(C)n3n2)c1 | 138 to 141
Cc1c(C#N)oc2c(-c3ccc(F)cc3)c(-c3ccc(S(N)(=O)=O)cc3)nn12 | 231 to 232
CCOC(=O)Cc1c(C)nn(-c2ccccc2)c1C | 86 to 87
Cc1cc(S(=O)(=O)c2cc(C)c(O)c(C3CCCCC3)c2)cc(C2CCCCC2)c1O | 264 to 265
FC(F)=C(F)CC(=S)Nc1ccccc1 | 65 to 67
CCOP(=O)(CNc1ccc2cc([N+](=O)[O-])cc(-c3cccc4ccccc34)c2n1)OCC | 187 to 188
CC(=O)c1sc(N2CCN(Cc3ccc(C(F)(F)F)cc3)C2=O)nc1C | 141 to 142
CC1(c2ccc(S(=O)(=O)Cl)cc2)Cc2cc(OCC(=O)O)c(Cl)c(Cl)c2C1=O (configuration not stated) | 209 to 210
CN1CCN(C(c2ccc(Cl)cc2)c2ccccc2C(=O)O)CC1 (configuration not stated) | 144 to 150
O=S(=O)(CCN1CC(c2ccccc2)C(c2ccc(Cl)cc2)=N1)c1cccc(C(F)(F)F)c1 (configuration not stated) | 118 to 119
O=C1c2ccccc2C(=O)c2c(NCCN3CCOCC3)ccc(NCCN3CCOCC3)c21 | 158 to 159
CC(C)(C)OC(=O)NCc1ccc(Nc2ncnc3[nH]cc(C(=O)c4ccccc4)c23)cc1 | 256 to 258
COCc1cc2ccccc2oc1=O | 72 to 73
O=C1CCC(N2C(=O)c3cccc(CNC(=O)Nc4cccc5ccccc45)c3C2=O)C(=O)N1 (configuration not stated) | 250 to 252
Cc1cc2c(c(C)c1SC#N)CCC(C)(C)O2 | 96 to 97
O=C(O)c1ccc(N2C(=O)C3C4C=CC(CC4)C3C2=O)cc1 (configuration not stated) | 269
Cc1ccc(-c2c(Cl)ncnc2OCCO)cc1 | 62 to 64
Cc1cc(-c2nc3cccnn3c2-c2ccnc(NC(=O)c3ccc(N(C)C)cc3)c2)ccc1F | 245 to 246

Compound | melting point [°C]
Clc1ccc(-c2cc(Cl)nc(Cl)n2)cc1 | 130 to 132
CC(C)(C)OC(=O)N1CCC2(CC1)SCc1ccccc12 | 131 to 132
C=Cc1ccc(C2=CC(=O)NC2=O)cc1 | 124 to 127
COC=C(C(=O)OC)c1ccc(CC(=O)O)cc1 | 81 to 84
CN1C(=O)CN(NC(=O)CNC(=O)OCc2ccccc2)C(c2ccccc2)c2cc(Cl)ccc21 (configuration not stated) | 184 to 190
Cn1nc(Br)c([N+](=O)[O-])c1NC(C)(C)C | 75 to 77
CCCS(=O)c1csc(C(=O)OC)c1S(N)(=O)=O (configuration not stated) | 131 to 144
Fc1cc(Br)ccc1CSc1nc2cnccc2[nH]1 | 204 to 206
Cc1cc(C)c(-c2c(OCOCC(C)C)oc(-c3ccsc3)c(C)c2=O)c(C)c1 | 102 to 104
Cc1cc(Br)cnc1CCCCNc1ncc(Cc2cccnc2)cc1N | 85 to 87
CCOC(=O)c1cn(Cc2ccc(-c3ccccc3-c3nnn[nH]3)cc2)c2sc(CC)c(NC(C)=O)c2c1=O | 163 to 166
CC(=S)O/C=C\n1nnnc1C | 135 to 137
Cc1oc(-c2ccc(C(F)(F)F)cc2)nc1-c1cccc(-c2ccc(O)cc2)c1 | 133 to 135
COc1cc(OC)nc(Sc2cccc(Cl)c2C(=O)O)n1 | 148 to 151
CC(C)(C)OC(=O)N1C[C@@H]([C@H](O)CO)CC1=O | 92 to 94
O=C(c1c(-c2ccccc2)oc2ccccc2c1=O)N1CCN(c2ccccn2)CC1 | 178 to 181
C=CCC(O)(C(=O)c1ccc(C)cc1)c1ccc(C)cc1 (configuration not stated) | 38 to 40
COC(=O)[C@@H]1C[C@H](NS(=O)(=O)c2ccccc2)C(=O)[C@H]2[C@@]1(C)CC[C@H]1C(=O)O[C@H](c3ccoc3)C[C@]21C | 271 to 273
COC(=O)c1nsc(NC=O)n1 | 210 to 215
CCC(Oc1c(C(C)C)cccc1C(C)C)C(=O)OC1CC(O)C=C2C=CC(C)C(CCC3CC(O)CC(=O)O3)C21 (mixture of isomers) | 119 to 121
Cc1cc(Nc2cc(-c3cccc(N4Cc5cc(C(C)(C)C)ccc5C4=O)c3CO)cn(C)c2=O)nn1C | 225 to 227
CC(C)c1c(CCC=O)c2c(c(C(C)C)c1OCc1ccccc1)CC(C)(C)O2 | 120 to 122
